# Data from PMC8214221, “Sequence determinants in the cathelicidin LL-37 that promote inflammation via presentation of RNA to scavenger receptors” (The Journal of Biological Chemistry, 2021).
# Residues, ends and D or L forms follow the SMILES beside them.
# How the values were obtained:
# [1] = test system: normal human epidermal keratinocytes (NHEKs); assay: LDH release cytotoxicity assay in keratinocytes; format: cell-based; conditions: minimal concentration giving 50% LDH release by NHEKs
# Outline: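 Normal human epidermal keratinocytes were exposed to LL-34 parent and alanine-substituted peptides. Cytotoxicity was read as LDH release in fresh culture supernatants after treatment, using a commercial kit, and reported as the minimal concentration showing toxicity.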
# [2] = test system: S. aureus strain USA300 and SA112, GAS; assay: Bacterial growth inhibition (OD600), Gram-positive strains; format: cell-based, Staphylococcus aureus; group A Streptococcus; conditions: 0-50 µM overnight, OD 600, n = 3, S. aureus USA300, SA113 (SA112 in text)
# Experimental: We further looked at mRNA abundance by quantitative RT-PCR (qRT-PCR) to evaluate gene expression for type 1 interferon IFNB1, chemokine CXCL10, and cytokines TSLP and IL6 in NHEKs treated with selected LL-34 parent, LL-34—F5A, I24A, F27A, and L31A—peptides either alone or in combination with U1 dsRNA for 18 h (Fig. 1, E–H).
# Methicillin-resistant S. aureus USA300 and methicillin-sensitive S. aureus SA113 (American Type Culture Collection 35556) were cultured in 3% tryptic soy broth overnight at 37 °C with shaking at 250 rpm. GAS M49 strain NZ131 was cultured in Todd Hewitt broth supplemented with 1% yeast extract overnight at 37 °C without shaking. E. coli R1 strain RS218 was cultured in LB broth overnight at 37 °C with shaking at 250 rpm. MIC values were determined using a round-bottom 96-well microdilution method with RPMI cell culture media (as a source of Ca^2+ and Mg^2+) supplemented with tryptic soy broth, Todd Hewitt broth/yeast extract, or LB to facilitate growth of the respective bacterial strains. Overnight bacterial cultures were subcultured into fresh broth and grown to midlate log phase indicated by an absorbance at 600 nm value between 0.8 and 1.0 for each bacterial strain. The absorbance was then normalized to provide a concentration of 1 × 10^7 colony-forming units/ml in RPMI medium. The LL-34 parent and alanine scan mutants were serially diluted into the 96-well microtiter plates containing prewarmed RPMI bacterial growth medium. A 10 μl aliquot of the midlate log phase bacteria was inoculated into the 96-well microtiter plates that contained 95 μl of RPMI medium with or without the LL-34 peptide dilutions and incubated for 16 to 18 h at […] with shaking at 200 rpm. Inhibition of growth was determined by measuring the absorbance at 600 nm readings of each well using a microplate reader (Infinite M200 Pro; Tecan). The MIC of each bacterial strain was determined by the lowest peptide concentration that inhibited more than 80% bacterial growth.
# (A) NHEKs and HDMECs (B) were treated with LL34- parent peptide and all the 34 alanine substituted peptides (Pep L1A-Pep R34A) and LL37 at 2 µM for 16 h. IL-6 protein secretion was assessed with ELISA (n=3) (C-F) LL34-Parent, LL34 F5A, LL34 I24A, LL34 F27A, and LL34 L31A peptides were incubated with S. aureus USA 300, S. aureus SA113, Group A Streptococcus (GAS) and E. coli at increasing concentrations (0-50 µM) overnight, and bacterial culture growth was assayed as absorbance at OD 600 (n=3).
# [3] = test system: U1 dsRNA binding on the surface of NHEKs; assay: Surface binding of Alexa 488-labeled U1 dsRNA to NHEKs; format: cell-based, human; conditions: Alexa 488 U1 0.05-10 μg/ml + peptide 2.5 μM, 10 min on ice; fluorometer RFU, n = 3
# Experimental: We also assayed the dynamics of binding of U1 dsRNA on the surface of NHEKs in the presence of LL-34 mutant peptides. NHEKs were exposed to fluorescent Alexa 488–labeled U1 at increasing concentrations (0.05–10 μg/ml) and LL-34 parent peptide, LL-34 I24A, LL-34 L31A, LL-34 K25A, and LL-34 proline at isoleucine position 20 (I20P) for 10 min on ice to allow for surface binding of U1 to cells in the presence of peptides (Fig. 5A).
# Figure 5 Biophysical properties of binding of U1 dsRNA to LL-34 peptides and SRB1 protein.A, NHEKs were treated with Alexa 488–labeled U1 dsRNA or a combination of Alexa 488–labeled U1 dsRNA (0.05–10 μg/ml) and LL-34 peptides LL-34 parent, LL-34 I24A, LL-34 K25A, LL-34 L31A, and LL-34 I20P at 2.5 μM as shown. The cells were prechilled on ice for 15 min before the addition of U1 dsRNA and/or LL-34 peptides, and the surface binding of U1 dsRNA was allowed for 10 min. The amount of U1 dsRNA binding to NHEKs was assessed with a fluorometer, and data are represented as relative fluorescence units (RFUs) (n = 3). B, NHEKs were similarly treated with Alexa-labeled U1 dsRNA (1.5 μg/ml) and/or unlabeled U1 dsRNA (15 μg/ml) with the addition of LL-34 parent peptide at 2.5 μM. The experiment was performed on ice for 10 min, and the relative binding of Alexa 488 U1 dsRNA was assessed on a fluorometer and is shown as RFU (n = 3) (∗p < 0.05) one-way ANOVA. C, SAXS spectra of LL-34 peptides LL-34 parent, LL-34 F5A, LL-34 I24A, and LL-34 L31A incubated with U1 dsRNA. The peptide-U1 dsRNA (P/R) ratio is varied at 1 and 2 for all conditions. The U1 dsRNA interhelical spacing (Q) was calculated by the peak position. The domain size (L) was calculated by the full width at half maximum of the first peak. LL-34, 34-amino acid peptide; NHEKs, normal human epidermal keratinocytes; SAXS, small-angle X-ray scattering.
Compound,Minimal cytotoxic concentration in NHEK (LD50) [1],Capacity to inhibit growth of Gram-positive bacteria [2],Binding of Alexa 488-labeled U1 dsRNA on the NHEK cell surface [3]
CC[C@H](C)[C@H](NC(=O)[C@H](CCCCN)NC(=O)[C@H](CCC(=O)O)NC(=O)[C@H](CCCCN)NC(=O)[C@H](CO)NC(=O)[C@H](CCCCN)NC(=O)[C@H](CCCNC(=N)N)NC(=O)[C@H](Cc1ccccc1)NC(=O)[C@H](Cc1ccccc1)NC(=O)[C@H](CC(=O)O)NC(=O)CNC(=O)[C@H](CC(C)C)NC(=O)[C@@H](N)CC(C)C)C(=O)NCC(=O)N[C@@H](CCCCN)C(=O)N[C@@H](CCC(=O)O)C(=O)N[C@@H](Cc1ccccc1)C(=O)N[C@@H](CCCCN)C(=O)N[C@@H](CCCNC(=N)N)C(=O)N[C@H](C(=O)N[C@H](C(=O)N[C@@H](CCC(N)=O)C(=O)N[C@@H](CCCNC(=N)N)C(=O)N[C@H](C(=O)N[C@@H](CCCCN)C(=O)N[C@@H](CC(=O)O)C(=O)N[C@@H](Cc1ccccc1)C(=O)N[C@@H](CC(C)C)C(=O)N[C@@H](CCCNC(=N)N)C(=O)N[C@@H](CC(N)=O)C(=O)N[C@@H](C)C(=O)N[C@H](C(=O)N1CCC[C@H]1C(=O)N[C@@H](CCCNC(=N)N)C(=O)O)C(C)C)[C@@H](C)CC)C(C)C)[C@@H](C)CC [LL-34—L31A] (H-LLGDFFRKSKEKIGKEFKRIVQRIKDFLRNAVPR-OH),10 µM,increased capacity to inhibit growth of most of the tested Gram-positive bacteria,nonsaturable binding
CC[C@H](C)[C@H](NC(=O)[C@H](CCCCN)NC(=O)[C@H](CCC(=O)O)NC(=O)[C@H](CCCCN)NC(=O)[C@H](CO)NC(=O)[C@H](CCCCN)NC(=O)[C@H](CCCNC(=N)N)NC(=O)[C@H](Cc1ccccc1)NC(=O)[C@H](Cc1ccccc1)NC(=O)[C@H](CC(=O)O)NC(=O)CNC(=O)[C@H](CC(C)C)NC(=O)[C@@H](N)CC(C)C)C(=O)NCC(=O)N[C@@H](CCCCN)C(=O)N[C@@H](CCC(=O)O)C(=O)N[C@@H](Cc1ccccc1)C(=O)N[C@@H](CCCCN)C(=O)N[C@@H](CCCNC(=N)N)C(=O)N[C@H](C(=O)N[C@H](C(=O)N[C@@H](CCC(N)=O)C(=O)N[C@@H](CCCNC(=N)N)C(=O)N[C@@H](C)C(=O)N[C@@H](CCCCN)C(=O)N[C@@H](CC(=O)O)C(=O)N[C@@H](Cc1ccccc1)C(=O)N[C@@H](CC(C)C)C(=O)N[C@@H](CCCNC(=N)N)C(=O)N[C@@H](CC(N)=O)C(=O)N[C@@H](CC(C)C)C(=O)N[C@H](C(=O)N1CCC[C@H]1C(=O)N[C@@H](CCCNC(=N)N)C(=O)O)C(C)C)C(C)C)[C@@H](C)CC [LL-34—I24A] (H-LLGDFFRKSKEKIGKEFKRIVQRAKDFLRNLVPR-OH),20 µM,increased capacity to inhibit growth of most of the tested Gram-positive bacteria,nonsaturable binding
